Test results as given in the NIST ThermoML archive (doi:10.1016/j.jct.2008.05.005).

Assay: xn = mol fraction of the nth substance listed
Settings: Liquid, Vibrating tube method

CCCCn1cc[n+](C)c1.F[B-](F)(F)F [1-butyl-3-methylimidazolium tetrafluoroborate] + CO
Settings | mass density [kg/m3]
298.15 K, 210 kPa, x1 = 0.9102 | 1203.93
298.15 K, 240 kPa, x1 = 0.2626 | 1065.61
298.15 K, 250 kPa, x1 = 0.4988 | 1144.91
298.15 K, 300 kPa, x1 = 0.1302 | 975.12
298.15 K, 310 kPa, x1 = 0.7501 | 1186.96
298.15 K, 380 kPa, x1 = 0.0087 | 804.76
298.15 K, 400 kPa, x1 = 0.0433 | 867.22
298.15 K, 4380 kPa, x1 = 0.0087 | 808.51
298.15 K, 5040 kPa, x1 = 0.9102 | 1206.16
298.15 K, 5080 kPa, x1 = 0.7501 | 1189.2
298.15 K, 5210 kPa, x1 = 0.2626 | 1068.88
298.15 K, 5270 kPa, x1 = 0.0433 | 871.22
298.15 K, 5310 kPa, x1 = 0.4988 | 1147.71
298.15 K, 5890 kPa, x1 = 0.1302 | 979.15
298.15 K, 10030 kPa, x1 = 0.7501 | 1191.5
298.15 K, 10030 kPa, x1 = 0.9102 | 1208.41
298.15 K, 10050 kPa, x1 = 0.4988 | 1150.25
298.15 K, 10080 kPa, x1 = 0.2626 | 1071.94
298.15 K, 10260 kPa, x1 = 0.0433 | 875.17
298.15 K, 10840 kPa, x1 = 0.1302 | 982.54
298.15 K, 10910 kPa, x1 = 0.0087 | 814.38
298.15 K, 15190 kPa, x1 = 0.0433 | 878.92
298.15 K, 15310 kPa, x1 = 0.9102 | 1210.74
298.15 K, 15330 kPa, x1 = 0.0087 | 818.18
298.15 K, 15380 kPa, x1 = 0.2626 | 1075.12
298.15 K, 15420 kPa, x1 = 0.7501 | 1193.96
298.15 K, 15620 kPa, x1 = 0.4988 | 1153.13
298.15 K, 15680 kPa, x1 = 0.1302 | 985.71
298.15 K, 19940 kPa, x1 = 0.0087 | 821.99
298.15 K, 20020 kPa, x1 = 0.0433 | 882.44
298.15 K, 20070 kPa, x1 = 0.9102 | 1212.8
298.15 K, 20140 kPa, x1 = 0.4988 | 1155.39
298.15 K, 20750 kPa, x1 = 0.2626 | 1078.17
298.15 K, 20890 kPa, x1 = 0.7501 | 1196.42
298.15 K, 20920 kPa, x1 = 0.1302 | 988.97
298.15 K, 25090 kPa, x1 = 0.2626 | 1080.52
298.15 K, 25120 kPa, x1 = 0.1302 | 991.46
298.15 K, 25410 kPa, x1 = 0.4988 | 1157.92
298.15 K, 25410 kPa, x1 = 0.9102 | 1215.05
298.15 K, 25420 kPa, x1 = 0.0433 | 886.2
298.15 K, 25680 kPa, x1 = 0.7501 | 1198.54
298.15 K, 25770 kPa, x1 = 0.0087 | 826.59
298.15 K, 30080 kPa, x1 = 0.0433 | 889.29
298.15 K, 30080 kPa, x1 = 0.7501 | 1200.46
298.15 K, 30090 kPa, x1 = 0.9102 | 1216.97
298.15 K, 30120 kPa, x1 = 0.2626 | 1083.1
298.15 K, 30410 kPa, x1 = 0.4988 | 1160.24
298.15 K, 30520 kPa, x1 = 0.0087 | 830.16
298.15 K, 31070 kPa, x1 = 0.1302 | 994.78
298.15 K, 35070 kPa, x1 = 0.2626 | 1085.49
298.15 K, 35290 kPa, x1 = 0.7501 | 1202.69
298.15 K, 35420 kPa, x1 = 0.0433 | 892.67
298.15 K, 35560 kPa, x1 = 0.1302 | 997.14
298.15 K, 35740 kPa, x1 = 0.0087 | 833.9
298.15 K, 35740 kPa, x1 = 0.4988 | 1162.61
298.15 K, 39560 kPa, x1 = 0.0433 | 895.16
298.15 K, 39780 kPa, x1 = 0.4988 | 1164.34
298.15 K, 39880 kPa, x1 = 0.0087 | 836.72
298.15 K, 39910 kPa, x1 = 0.7501 | 1204.65
298.15 K, 39910 kPa, x1 = 0.9102 | 1220.87
298.15 K, 39930 kPa, x1 = 0.9102 | 1220.88
298.15 K, 39960 kPa, x1 = 0.2626 | 1087.71
298.15 K, 40120 kPa, x1 = 0.1302 | 999.4
323.15 K, 230 kPa, x1 = 0.9102 | 1185.2
323.15 K, 240 kPa, x1 = 0.0087 | 781
323.15 K, 240 kPa, x1 = 0.7501 | 1168.14
323.15 K, 260 kPa, x1 = 0.1302 | 952.36
323.15 K, 440 kPa, x1 = 0.0433 | 844.94
323.15 K, 670 kPa, x1 = 0.2626 | 1046.2
323.15 K, 780 kPa, x1 = 0.4988 | 1126.41
323.15 K, 5040 kPa, x1 = 0.9102 | 1187.61
323.15 K, 5070 kPa, x1 = 0.7501 | 1170.7
323.15 K, 5310 kPa, x1 = 0.4988 | 1128.87
323.15 K, 5320 kPa, x1 = 0.2626 | 1049.53
323.15 K, 5430 kPa, x1 = 0.0433 | 849.82
323.15 K, 5440 kPa, x1 = 0.0087 | 786.6
323.15 K, 6310 kPa, x1 = 0.1302 | 957.29
323.15 K, 10030 kPa, x1 = 0.9102 | 1190.07
323.15 K, 10080 kPa, x1 = 0.2626 | 1052.82
323.15 K, 10090 kPa, x1 = 0.4988 | 1131.48
323.15 K, 10140 kPa, x1 = 0.1302 | 960.32
323.15 K, 10160 kPa, x1 = 0.0433 | 854.23
323.15 K, 10340 kPa, x1 = 0.7501 | 1173.44
323.15 K, 11020 kPa, x1 = 0.0087 | 792.32
323.15 K, 15060 kPa, x1 = 0.2626 | 1056.14
323.15 K, 15120 kPa, x1 = 0.1302 | 964.14
323.15 K, 15250 kPa, x1 = 0.0433 | 858.75
323.15 K, 15420 kPa, x1 = 0.4988 | 1134.4
323.15 K, 15430 kPa, x1 = 0.7501 | 1176.04
323.15 K, 15440 kPa, x1 = 0.0087 | 796.64
323.15 K, 15470 kPa, x1 = 0.9102 | 1192.72
323.15 K, 20070 kPa, x1 = 0.7501 | 1178.36
323.15 K, 20090 kPa, x1 = 0.9102 | 1194.92
323.15 K, 20110 kPa, x1 = 0.1302 | 967.85
323.15 K, 20340 kPa, x1 = 0.0433 | 863.04
323.15 K, 20430 kPa, x1 = 0.2626 | 1059.59
323.15 K, 20640 kPa, x1 = 0.0087 | 801.47
323.15 K, 20740 kPa, x1 = 0.4988 | 1137.33
323.15 K, 25030 kPa, x1 = 0.4988 | 1139.71
323.15 K, 25090 kPa, x1 = 0.7501 | 1180.84
323.15 K, 25120 kPa, x1 = 0.1302 | 971.44
323.15 K, 25310 kPa, x1 = 0.9102 | 1197.38
323.15 K, 25630 kPa, x1 = 0.0433 | 867.24
323.15 K, 25660 kPa, x1 = 0.0087 | 805.89
323.15 K, 25810 kPa, x1 = 0.2626 | 1062.91
323.15 K, 29940 kPa, x1 = 0.0433 | 870.48
323.15 K, 30010 kPa, x1 = 0.4988 | 1142.47
323.15 K, 30090 kPa, x1 = 0.2626 | 1065.44
323.15 K, 30410 kPa, x1 = 0.7501 | 1183.41
323.15 K, 30440 kPa, x1 = 0.1302 | 975.12
323.15 K, 30450 kPa, x1 = 0.9102 | 1199.76
323.15 K, 30560 kPa, x1 = 0.0087 | 809.96
323.15 K, 35210 kPa, x1 = 0.0433 | 874.21
323.15 K, 35240 kPa, x1 = 0.2626 | 1068.37
323.15 K, 35240 kPa, x1 = 0.4988 | 1145.39
323.15 K, 35240 kPa, x1 = 0.7501 | 1185.69
323.15 K, 35450 kPa, x1 = 0.0087 | 813.8
323.15 K, 35620 kPa, x1 = 0.1302 | 978.57
323.15 K, 35860 kPa, x1 = 0.9102 | 1202.22
323.15 K, 39410 kPa, x1 = 0.0087 | 816.73
323.15 K, 39620 kPa, x1 = 0.1302 | 981.14
323.15 K, 39860 kPa, x1 = 0.9102 | 1204.01
323.15 K, 39890 kPa, x1 = 0.0433 | 877.31
323.15 K, 39890 kPa, x1 = 0.7501 | 1187.86
323.15 K, 39970 kPa, x1 = 0.2626 | 1070.95
323.15 K, 39970 kPa, x1 = 0.4988 | 1148.04
348.15 K, 340 kPa, x1 = 0.1302 | 931.46
348.15 K, 420 kPa, x1 = 0.9102 | 1166.95
348.15 K, 610 kPa, x1 = 0.4988 | 1107.55
348.15 K, 640 kPa, x1 = 0.0087 | 757.2
348.15 K, 710 kPa, x1 = 0.0433 | 821.46
348.15 K, 860 kPa, x1 = 0.2626 | 1026.35
348.15 K, 870 kPa, x1 = 0.7501 | 1150.03
348.15 K, 5060 kPa, x1 = 0.2626 | 1029.49
348.15 K, 5070 kPa, x1 = 0.7501 | 1152.55
348.15 K, 5310 kPa, x1 = 0.9102 | 1169.75
348.15 K, 5370 kPa, x1 = 0.0433 | 826.71
348.15 K, 5410 kPa, x1 = 0.4988 | 1110.43
348.15 K, 5710 kPa, x1 = 0.1302 | 936.68
348.15 K, 6020 kPa, x1 = 0.0087 | 763.72
348.15 K, 10060 kPa, x1 = 0.4988 | 1113.45
348.15 K, 10060 kPa, x1 = 0.7501 | 1155.48
348.15 K, 10070 kPa, x1 = 0.9102 | 1172.42
348.15 K, 10410 kPa, x1 = 0.2626 | 1033.58
348.15 K, 10670 kPa, x1 = 0.0433 | 832.4
348.15 K, 10820 kPa, x1 = 0.1302 | 941.38
348.15 K, 10960 kPa, x1 = 0.0087 | 769.43
348.15 K, 15090 kPa, x1 = 0.2626 | 1037.07
348.15 K, 15120 kPa, x1 = 0.0087 | 774.02
348.15 K, 15120 kPa, x1 = 0.4988 | 1116.66
348.15 K, 15140 kPa, x1 = 0.1302 | 945.16
348.15 K, 15150 kPa, x1 = 0.0433 | 836.97
348.15 K, 15420 kPa, x1 = 0.9102 | 1175.35
348.15 K, 15870 kPa, x1 = 0.7501 | 1158.8
348.15 K, 20070 kPa, x1 = 0.4988 | 1119.71
348.15 K, 20080 kPa, x1 = 0.7501 | 1161.16
348.15 K, 20110 kPa, x1 = 0.0433 | 841.77
